Results reported in publication PMC9194530, “Interaction of Colchicine-Site Ligands With the Blood Cell-Specific Isotype of β-Tubulin—Notable Affinity for Benzimidazoles” (Frontiers in Cell and Developmental Biology, 2022).
Where two headings read alike, the source gives them in different places.

How the values were obtained:
[1] = molecular target: T1, Brain tubulin (BTb) (Bos taurus, UniProt Q6B856); assay: Inhibition of taxol-induced tubulin polymerization (absorbance at 350 nm), brain tubulin; format: biochemical, bovine or rat; details: tubulin 2 µM, taxol 2 µM, drugs 20 µM; polymerization with taxol alone = 100%
T1 construct: from tissue; host or cells: mammalian brain: either rat brain (purified in house) or bovine brain (bought from Cytoskeleton #HTS02-A or Sigma-Aldrich #T4925)
Description: (§1) Tubulin was polymerized at a concentration of 2 µM in PM buffer (0.1 M Pipes pH 7, 1 mM MgCl2) + 0.1 mM GTP in a volume of 60 µL. The reaction mixture was transferred to a 10-mm pathlength microcuvette (Hellma United States Inc., Plainview, NY) and placed in the cuvette holder of a SpectraMax M2 Multimode Microplate Reader (Molecular Devices, San Jose, CA) equipped with temperature control set at 37°C for these experiments. Drugs at 20 µM were added directly to the polymerization mixture and incubated for 15 min previous to starting the recordings. Tubulin polymerization kinetics was followed by recording the absorbance at 350 nm. After recording the baseline, tubulin polymerization was induced by the addition of 2 µM paclitaxel (taxol). The final concentration of DMSO in the mixtures was 4%–5% v/v.
(§2) FIGURE 2 Inhibition of tubulin polymerization by colchicine-site drugs. Tubulin from brain (A) or from erythrocytes (B) was incubated at 2 µM in polymerization buffer at 37°C, and the absorbance at 350 nm was registered for 10 min prior to starting the polymerization by the addition of taxol 2 µM (arrow). Drugs were included in polymerization buffer and used at a concentration of 20 µM.

[2] = molecular target: Erythrocyte tubulin (CeTb) (Gallus gallus, UniProt P09207); assay: Inhibition of taxol-induced tubulin polymerization (absorbance at 350 nm), erythrocyte tubulin; format: biochemical, chicken (Gallus gallus)
Description: as §1, §2

[3] = molecular target: Chicken brain tubulin (CBTb); assay: MDL fluorescence dilution titration, chicken brain tubulin; format: binding; details: 1 µM tubulin, PM buffer, 5% DMSO, 25°C; ± standard error of fit
[4] = molecular target: T2, Rat brain tubulin (RBTb) (Rattus norvegicus, UniProt Q3KRE8); assay: MDL fluorescence dilution titration, rat brain tubulin; format: binding; details: 1 µM tubulin, PM buffer, 5% DMSO, 25°C; ± standard error of fit
T2 construct: Rat brain tubulin was purified from microtubule protein previously extracted from frozen rat brains; from tissue; host or cells: frozen rat brains; tubulin purified in house from microtubule protein

[5] = molecular target: T3, Bovine brain tubulin (BBTb) (Bos taurus, UniProt Q6B856); assay: MDL fluorescence dilution titration, bovine brain tubulin; format: binding; details: 1 µM tubulin, PM buffer, 5% DMSO, 25°C; ± standard error of fit
T3 construct: purchased Cytoskeleton, Inc. or Sigma-Aldrich #HTS02-A or #T4925; host or cells: bovine brain

[6] = molecular target: Chicken erythrocyte tubulin (CeTb) (Gallus gallus, UniProt P09207); assay: MDL fluorescence dilution titration, chicken erythrocyte tubulin; format: binding
[7] = molecular target: T4, Brain tubulin (BTb), colchicine site (Bos taurus, UniProt Q6B856); assay: Competition titration with MDL (fluorescence), brain tubulin; format: binding, bovine or rat
T4 construct: from tissue; host or cells: mammalian brain: either rat brain (purified in house) or bovine brain (bought from Cytoskeleton #HTS02-A or Sigma-Aldrich #T4925)

[8] = molecular target: Erythrocyte tubulin (CeTb), colchicine site (Gallus gallus, UniProt P09207); assay: biochemical; format: binding, chicken (Gallus gallus)
[9] = molecular target: T5, BTb, colchicine site (Bos taurus, UniProt Q6B856); assay: Single-point MDL competitive binding inhibition screen, brain tubulin; design: species or system bovine or rat; details: for inhibition at 50 µM: read-out: BTb % (inhibition of MDL binding)
T5 construct: from tissue; host or cells: mammalian brain: either rat brain (purified in house) or bovine brain (bought from Cytoskeleton #HTS02-A or Sigma-Aldrich #T4925)

[10] = molecular target: CeTb, colchicine site (Gallus gallus, UniProt P09207); assay: Single-point MDL competitive binding inhibition screen, erythrocyte tubulin; design: species or system chicken (Gallus gallus); details: for Kd: from single-point data (50 µM drug) fitted with single-site isotherm, Eq. 4, read-out: CeTb Kd(app); for inhibition at 50 µM: read-out: CeTb % (inhibition of MDL binding)
[11] = molecular target: T6, bovine brain microtubule protein (tubulin plus microtubule-associated proteins) (Bos taurus, UniProt Q6B856); assay: GTP-induced polymerization of bovine brain microtubule protein (turbidity at 350 nm); format: biochemical; details: albendazole 12-60 µM, 15 µM microtubule protein, 1 mM GTP, 37 °C, 2% DMSO
T6 construct: from tissue; host or cells: bovine brain; microtubule protein purified by the method of Williams and Lee, 1982
Description: albendazole (ABZ). 15 µM bovine brain microtubule protein (tubulin plus microtubule-associated proteins, purified according to (Williams and Lee, 1982), in PME buffer was incubated with varying concentrations of albendazole for 40 min at room temperature.
The samples were equilibrated to 37 °C in the cell holder of a UV-Vis spectrophotometer (HP8453, Hewlett Packard, Palo Alto, CA). A baseline was recorded before adding GTP to a concentration of 1 mM to induce microtubule assembly. All samples had 2% (v/v) DMSO. The extent of polymerization was determined by the increase of turbidity as measured by the apparent absorbance at 350 nm.

[12] = molecular target: rat brain tubulin; design: method as in Cortese et al., 1977; details: tritiated podophyllotoxin, ref Cortese et al., 1977, read-out: Kd podophyllotoxin, literature value; cited from earlier work
[13] = molecular target: BBTb; design: method as in Lin et al., 1989; details: read-out: Kd combretastatin A4, literature value; ref Lin et al., 1989; cited from earlier work
[14] = molecular target: BTb; design: method as in Head et al., 1985; details: read-out: Kd nocodazole, published value; ref Head et al., 1985; cited from earlier work
[15] = tubulin 2 µM, taxol 2 µM, drugs 20 µM, polymerization with taxol alone = 100%
[16] = competition titration, 1 µM tubulin, 5 µM MDL, calculated with Equation 4, nb = no binding detected
[17] = competition titration, 1 µM tubulin, 5 µM MDL, nb = no binding detected
[18] = competition titration, 1 µM tubulin, 5 µM MDL
[19] = competition titration, 1 µM tubulin, 5 µM MDL, calculated with Equation 4, read-out: Erythrocyte tubulin (CeTb) Kd
[20] = summary of competition titrations with MDL, read-out: Erythrocyte tubulin (CeTb) Kd (Table 4, selected drugs)
[21] = 50 µM drug, 1 µM tubulin, 5 µM MDL, single point

Row | Compound | Brain tubulin (BTb) % inhibition at 60 min [1] | Erythrocyte tubulin (CeTb) % inhibition at 30 min [2, 15] | Brain tubulin (BTb) Kd [7, 16] | Brain tubulin (BTb) IC50 [7, 17] | IC50 [8, 18] | Kd [8, 19] | Kd [8, 20] | CeTb % (inhibition of MDL binding) [10, 21] | Kd [10] | inhibition at 50 µM [9] | further results
1 | COc1ccc(OC)c(C(=O)/C(C)=C/c2ccc(N(C)C)cc2)c1 [MDL, (E)-1-(2,5-dimethoxyphenyl)-3-[4-(dimethylamino)phenyl]-2-methylprop-2-en-1-one] | 64% | 38% | – | – | – | – | – | – | – | – | Kd [3]: 0.51 ± 0.079 µM; Kd [4]: 0.45 ± 0.046 µM; Kd [5]: 0.54 ± 0.082 µM; Kd ([6]; 1 µM tubulin, PM buffer, 5% DMSO, 25°C, ± standard error of fit, read-out: Kd,MDL, chicken erythrocytes (CeTb)): 2.6 ± 0.24 µM; MDL affinity for CeTb, fold weaker than to brain tubulins ([6]; direct MDL titration): ~5 fold; Ratio: Kd of MDL and CeTb divided by Kd of MDL and BBTb ([6]; direct MDL titration): 5
2 | CCCSc1ccc2nc(NC(=O)OC)[nH]c2c1 [Albendazole] | – | – | nb | nb | 104 ± 12 µM | 35 ± 4 µM | 35 µM | 35% | 31 µM | – | Brain tubulin (BTb) Kd ([7]; competition titration, 1 µM tubulin, 5 µM MDL, calculated with Equation 4, nb = no binding detected, listed as albendazole): no detectable binding; BTb % (inhibition of MDL binding) [9]: <1%; inhibition of polymerization of BTb [11]: little or no inhibition; inhibition of polymerization of BTb ([11]; listed as albendazole (ABZ)): not significantly inhibited
3 | COc1cc([C@@H]2c3cc4c(cc3[C@H](O)[C@H]3COC(=O)[C@H]23)OCO4)cc(OC)c1OC [Podophyllotoxin] | 90% | 95% | – | – | 15 ± 0.53 µM | 4.9 ± 0.18 µM | 4.9 µM | – | – | 90% | IC50 [7]: 4 ± 1 µM; Kd ([7]; Brain tubulin (BTb) Kd): 0.37 ± 0.035 µM; Kd ([7]; Brain tubulin (BTb) Kd (Table 4, selected drugs)): 0.37 µM; Ratio: Kd of the drug and CeTb divided by the Kd of the drug and BBTb [8]: 13; Kd [9]: 0.73 µM; inhibition at 50 µM [10, 21]: 81%; Kd [12]: 0.55 µM
4 | CCCOc1ccc2nc(NC(=O)OC)[nH]c2c1 [Oxibendazole] | – | – | nb | nb | 36 ± 5.6 µM | 12 ± 1.9 µM | 12 µM | 56% | 13 µM | – | Brain tubulin (BTb) Kd ([7]; competition titration, 1 µM tubulin, 5 µM MDL, calculated with Equation 4, nb = no binding detected, listed as oxibendazole): no detectable binding; BTb % (inhibition of MDL binding) [9, 21]: <1%; BTb % (inhibition of MDL binding) ([9]; 50 µM drug, 1 µM tubulin, 5 µM MDL, single point, listed as oxibendazole): < 10%
5 | COC(=O)Nc1nc2ccc(C(=O)c3ccccc3)cc2[nH]1 [Mebendazole] | 92% | 25% | – | – | 6.8 ± 0.73 µM | 2.3 ± 0.25 µM | 2.6 µM | 90% | 1.8 µM | – | Kd ([7]; competition titration, 1 µM tubulin, 5 µM MDL, calculated with Equation 4, nb = no binding detected, read-out: Brain tubulin (BTb) Kd): 1.3 ± 0.23 µM; IC50 ([7]; competition titration, 1 µM tubulin, 5 µM MDL, nb = no binding detected, read-out: Brain tubulin (BTb) IC50): 14 ± 2.5 µM; Ratio: Kd of the drug and CeTb divided by the Kd of the drug and BBTb ([8]; ratio >1 = weaker binding to CeTb): 1.9; inhibition at 50 µM [9, 21]: 82%; Kd ([9]; from single-point data (50 µM drug) fitted with single-site isotherm, Eq. 4, read-out: BTb Kd(app)): 1 µM
6 | COC(=O)Nc1nc2ccccc2[nH]1 [Carbendazim] | – | – | nb | nb | 37 ± 5.4 µM | 13 ± 1.8 µM | – | – | 12 µM | – | Brain tubulin (BTb) Kd ([7]; competition titration, 1 µM tubulin, 5 µM MDL, calculated with Equation 4, nb = no binding detected, listed as carbendazim): no detectable binding; inhibition at 50 µM [10]: 58%
7 | COc1ccc(/C=C\c2cc(OC)c(OC)c(OC)c2)cc1O [Combretastatin A4, cis-Combretastatin A4] | – | – | – | – | – | – | – | – | – | 92% | CeTb % (inhibition of MDL binding) [10]: 64%; Kd [13]: 0.12 µM
8 | COC(=O)Nc1nc2ccc(C(=O)c3cccs3)cc2[nH]1 [Nocodazole] | 55% | – | – | – | – | – | – | – | – | 85% | Erythrocyte tubulin (CeTb) % inhibition at 30 min [2]: 90%; CeTb % (inhibition of MDL binding) [10]: 96%; Kd [14]: 2.5 µM
